From US20090286750A1, “USE OF RIBOSE IN LESSENING THE CLINICAL SYMPTOMS OF ABERRANT FIRING OF NEURONS” (priority 2008, published 2009)
Read-outs that look alike come from different tables or passages of the source.

Legend:
[1] = Serum D-Ribose levels and half life after infusion or oral administration; assay type: in vivo, human
Procedure: D-Ribose is found at low levels in the diet and normal serum levels are approximately 2 mg/dl. […] When infused for short periods at the concentrations of 60 mg/kg and 100 mg/kg, D-Ribose levels in the serum rose, in each case, to approximately 25 mg/dl. These doses of D-Ribose, for a 60 kilogram man, are 3.6 and 5 grams, respectively. Doses for larger or smaller size humans can be calculated based on their mass, and are typically 1 to 10 grams. […] Intravenous administration of high doses of D-Ribose can elevate the serum levels to as high as 60 mg/dl, while a further increase in dose to 222.2 mg/kg can produce a serum level as high as 86 mg/dl. See, for example, Gross et al., Klinische Wochenschrift (1991) 69:31-36.
Serum D-ribose levels should be maintained long enough to establish an effect that will persist after the serum D-ribose level is back to baseline levels. […] Typically, approximately a third of the cardiac output is used to supply energy to the brain.

[2] = tested on: two familial males with RLS; assay: Restless Legs Syndrome case study, oral D-ribose at three dosing regimens; assay type: in vivo, human
Excerpt: We present a report on two familial males with RLS in which the supplementation of D-ribose produced a benefit in lessening the occurrence and severity of their daily symptoms. Both affected male individuals were from a positive family prevalence, three generations carrying the diagnosis of RLS. These males involved the latter two generations, parent and child, respectively. Both men had no underlying medical conditions. Their symptoms of RLS date back for decades and presently have progressed to the moderate to severe discomfort stage, mainly experienced during sedentary periods throughout the day with exacerbation of symptoms during nocturnal sleep. Both individuals were introduced to D-ribose. To evaluate any potential benefits of D-ribose in RLS, each individual orally consumed D-ribose (five grams per dose) daily at different trial dosing regimens. Each trial dosing regimen lasted for three weeks with a two week interval washout between dosing regimens. The initial regimen involved a single dose of oral D-ribose consumed only at breakfast. The second dosing regimen involved consumption of oral D-ribose at breakfast and lunch. In the last dosing regiment, oral D-ribose was taken with all meals, breakfast, lunch and dinner. A diary pertaining to the documentation and severity of RLS symptoms was compiled. The two week washout period between stages was designed to observe any return or worsening of their symptoms. […] Following completion of all dosing regimens of oral D-ribose and with the final wash out period, both males elected to re-start oral dosing of D-ribose at 5 grams/doses three times a day.

[3] = cited from earlier work
[4] = regardless of the measured serum level of D-Ribose; cited from earlier work
[5] = tested on: two familial males with RLS; settings: oral dosage below eight grams at a time, no more often than every two hours; cited from earlier work
[6] = oral 5 g at breakfast and lunch, three weeks
[7] = oral 5 g at breakfast, lunch and dinner, three weeks
[8] = oral 5 g, single dose at breakfast, three weeks

## O=C[C@H](O)[C@H](O)[C@H](O)CO [D-Ribose]
[1]; at a 15 minute half life
  time for serum D-Ribose levels to drop to near baseline of two mg/dl: within an hour
[1]; human, serum, assumed from the above oral pharmacokinetic information
  half-life: 15 min
[2]; RLS study
  washout complete after ceasing D-ribose supplementation: 48 h
[2]; [6]
  leg twitching events and urge to move during the day: reduced for one of the subjects and rarely present in the other
  nocturnal symptoms: still experienced the unpleasant sensations during the night
[2]; [7]
  diurnal symptoms: total elimination
  nocturnal symptoms: of a much lesser degree and had a later occurrence
[2]; [8]
  general feeling (energy, fatigue): more energy and less fatigue
  symptoms of RLS: without any significant changes
[2]; oral 5 grams/dose three times a day
  adverse reactions: without any adverse reactions
[2]; re-started oral 5 grams/dose three times a day
  severity and onset of symptoms affecting quality of life: substantially improved
[2]; washout period
  time to return of clinical RLS symptoms after cessation of oral D-ribose: ≤ 48 h
[3]; baseline, from diet
  normal serum levels of D-Ribose: approximately 2 mg/dl
[3]; infused for short periods at 60 mg/kg
  D-Ribose level in the serum: approximately 25 mg/dl
[3]; infused for short periods at 100 mg/kg
  D-Ribose level in the serum: approximately 25 mg/dl
[3]; infusion 60 mg/kg
  half life of D-Ribose in the serum: 11 min
[3]; infusion 100 mg/kg
  half life of D-Ribose in the serum: 16 min
[3]; intravenous administration of high doses
  serum D-Ribose level: ≤ 60 mg/dL
[3]; intravenous, further increase in dose to 222.2 mg/kg
  serum D-Ribose level: ≤ 86 mg/dL
[3]; oral, four hours of 83.2 mg/kg per hour
  serum D-Ribose level: 29.25 mg/dL
[3]; oral, four hours of 166.7 mg/kg per hour
  serum D-Ribose level: 35 mg/dL
[4]
  decline in serum glucose, ultimate lower level: 25%
[5]
  side effects: no side effects
